One block for each compound: values may come before it.
Columns and labels:
[1] = molecular target: T1, glutathione S-transferase isoenzyme A1-1 (GST A1-1) (Homo sapiens, UniProt P08263); experiment: Utilization of benzothiazole substrate by GST A1-1; format: biochemical; settings: 55 minutes at room temperature
T1 sequence (P08263 1-222): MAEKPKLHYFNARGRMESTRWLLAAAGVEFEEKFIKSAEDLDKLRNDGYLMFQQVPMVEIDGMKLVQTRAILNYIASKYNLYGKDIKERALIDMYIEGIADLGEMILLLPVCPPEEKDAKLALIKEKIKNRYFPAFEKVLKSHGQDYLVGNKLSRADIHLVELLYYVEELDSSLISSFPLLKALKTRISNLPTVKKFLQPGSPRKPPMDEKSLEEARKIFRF
Description: (§1) Compound 934-37 was dissolved in DMSO to produce a solution approximately 1 mg/mL. This solution was diluted 1:100 (v/v) into 50 mM HEPES buffer pH 7.5 to produce a substrate solution (approximately 10 μg/ml). Twenty μL of this solution was placed in 10 wells of a 96 well, white luminometer plate (Promega part Z3291), 20 μL of a 1:3.1 dilution of the substrate (approximately 3.2 μg/ml) was placed into another 10 wells in the luminometer plate.
(§2) D-Cysteine, 4 mg (Sigma Chemical Corp.; C8005-1g, 017K1034) was dissolved into 1 mL of 50 mM HEPES buffer pH 7.5, then 4 μL added to 4 of the wells containing the substrate solution and 4 of the wells with diluted substrate solution to convert compound 934-37 to the corresponding luciferin derivative. The structures of these compounds are shown below.
A sample of glutathione S-transferase isoenzyme A1-1 (GST A1-1) (1.2 mg/mL) and 100 μL of 100 mM glutathione in water was diluted into 5 mL of 50 mM HEPES pH 7.5, then 25 μL added to the plate as follows: 2 wells with unconverted, concentrated compound 934-37; 2 wells with concentrated and converted compound 934-37; 2 wells with unconverted, diluted compound 934-37; and 2 of the wells with converted, diluted compound 934-37.
(§3) Glutathione (100 μL of 100 mM glutathione) had been diluted to 5 mL with 50 mM HEPES buffer pH 7.5, then 25 μL added to the remaining wells of converted and unconverted compound 934-37 in concentrated and diluted solution.
(§4) After 55 minutes at room temperature, 4 μL of the D-cysteine solution above was added to all wells that had not received cysteine before, then 50 μL of P450-Glo LDR was added. The plate was then placed into a GloMax luminometer (Promega Corp.), and the bioluminescence measured after 15 minutes of incubation. The values obtained were averaged, and the average value of the bioluminescence produced from the wells with no enzyme were then subtracted from the average of the bioluminescence produced in the wells with enzyme.

[2] = molecular target: T2, GST M1-1 (Homo sapiens, UniProt P09488); experiment: Utilization of benzothiazole substrate by GST M1-1; format: biochemical; settings: 55 minutes at room temperature
T2 sequence (P09488 2-218 limits assumed): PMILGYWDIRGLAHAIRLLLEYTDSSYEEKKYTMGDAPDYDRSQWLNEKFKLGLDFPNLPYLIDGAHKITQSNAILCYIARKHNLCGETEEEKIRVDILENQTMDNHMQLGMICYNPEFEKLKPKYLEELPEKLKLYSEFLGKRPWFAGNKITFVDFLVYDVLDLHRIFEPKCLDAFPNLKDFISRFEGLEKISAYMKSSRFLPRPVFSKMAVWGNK
Description: as §1, §2
A sample of GST M1-1 (1.2 mg/mL) and 100 μL of 100 mM glutathione was diluted into 5 mL of 50 mM HEPES pH 7.5, then 25 μL added to: two of the wells with unconverted, concentrated compound 934-37; 2 wells with concentrated and converted compound 934-37; and two of the wells with unconverted, diluted compound 934-37 and 2 of the wells with converted, diluted compound 934-37.
as §3, §4

[3] = tested on: UGT isozymes; settings: UGT isozymes currently reported in the literature; cited from earlier work
[4] = tested on: CYP450 1A2 activity in human liver microsomes; experiment: Human liver microsome assay with compound 3019; settings: 1 μg HLM, 3 μM compound 3019, 10 minutes at 37° C.
Description: Equal volumes of P450-Glo LDR with 6.6 mM D-Cysteine was added into the CYP450 reactions.

[5] = concentrated substrate (approximately 10 μg/ml)
[6] = diluted substrate (approximately 3.2 μg/ml)

- bioluminescence with GST A1-1 minus no enzyme [1, 5]: 164,400 RLU
- bioluminescence with GST A1-1 minus no enzyme [1, 6]: 195,021 RLU
- bioluminescence with GST M1-1 minus no enzyme [2, 5]: 41,212 RLU
- bioluminescence with GST M1-1 minus no enzyme [2, 6]: 30,428 RLU
SMILES: Cc1cc(S(=O)(=O)Oc2ccc3nc(C#N)sc3c2)ccc1[N+](=O)[O-] [Compound 934-37]

SMILES: C=C[C@H]1C[N@@]2CC[C@H]1C[C@@H]2[C@@H](O)c1ccnc2ccc(OC)cc12 [Quinidine]
- Isozymes Modulated [3]: 2B7 and 2B15, others to a lesser extent

SMILES: O=c1ccc2ccc(O)cc2o1 [Umbelliferne]
- Isozymes Modulated [3]: Substrate of most isozymes

- inhibition of compound 3019 activity in human liver microsomes [4]: sensitive to inhibition
SMILES: O=c1cc(-c2ccccc2)oc2c1ccc1ccccc12 [α-naphthoflavone, reference compound]

Source: patent publication US8592172B2, “Bioluminescent assays using cyanobenzothiazole compounds” (Promega Corporation, priority 2010, dated 2013)
